PubChem BioAssay AID328 (DTP/NCI, 2004)
Where “and” joins values, the source holds several entries; their conditions need not be identical. Equal entries are not always repeated. Inconclusive results and toxic doses are left out.

System: BDF1 mice, P388 leukemia ip, median survival T/C
Assay: NCI In Vivo Anticancer Drug Screen. Data for tumor model P388 Leukemia (intraperitoneal) in B6D2F1 (BDF1) mice
Conditions: endpoint: median survival time, higher = longer survival
How it was run: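 Each value expresses how treatment altered survival: treated-mouse outcome over vehicle-mouse outcome, both groups bearing the transplanted tumour.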

[1] = dose: 200.0 mg/kg/injection, schedule: Q04DX003 (ip), vehicle: saline with Tween-80
[2] = dose: 6.25 mg/kg/injection, schedule: Q01DX009 (ip), vehicle: saline with Tween-80
[3] = dose: 100.0 mg/kg/injection, schedule: Q04DX003 (ip), vehicle: saline with Tween-80
[4] = dose: 25.0 mg/kg/injection, schedule: Q01DX009 (ip), vehicle: saline with Tween-80
[5] = dose: 100.0 mg/kg/injection, schedule: Q01DX009 (ip), vehicle: saline with Tween-80
[6] = dose: 200.0 mg/kg/injection, schedule: Q01DX009 (ip), vehicle: saline with Tween-80
[7] = dose: 400.0 mg/kg/injection, schedule: Q01DX009 (ip), vehicle: saline with Tween-80

SMILES: Cc1ccc(C(SCC(N)C(=O)O)(c2ccccc2)c2ccccc2)cc1 (stereo unspecified)
- T/C (dose: 132.0 mg/kg/injection, schedule: Q04DX003 (ip), vehicle: saline with Tween-80): 260 % of control
- T/C [1]: 260 % of control
- T/C (dose: 300.0 mg/kg/injection, schedule: Q04DX003 (ip), vehicle: saline with Tween-80): 95 % of control

SMILES: O=C1OC2C(I)C3CCC2C1C3 (stereo unspecified)
- T/C (dose: 100.0 mg/kg/injection, schedule: Q01DX009 (ip), vehicle: saline): 105 % of control
- T/C (dose: 100.0 mg/kg/injection, schedule: Q04DX003 (ip), vehicle: saline): 121 % of control
- T/C (dose: 200.0 mg/kg/injection, schedule: Q01DX009 (ip), vehicle: saline): 115 % of control
- T/C (dose: 200.0 mg/kg/injection, schedule: Q04DX003 (ip), vehicle: saline): 95 % of control
- T/C (dose: 400.0 mg/kg/injection, schedule: Q04DX003 (ip), vehicle: saline): 95 % of control

SMILES: Cc1cc2nc3c(=O)[nH]c(=O)nc-3n(CCOC(=O)CCC(=O)O)c2cc1C
- T/C (dose: 50.0 mg/kg/injection, schedule: Q01DX009 (ip), vehicle: saline sonified): 100 % of control
- T/C (dose: 100.0 mg/kg/injection, schedule: Q01DX009 (ip), vehicle: saline sonified): 100 % of control
- T/C (dose: 200.0 mg/kg/injection, schedule: Q01DX009 (ip), vehicle: saline sonified): 118 % of control

SMILES: COc1ccc2nc3cc(Cl)ccc3c(NC(C)CCCN(CCCl)CCCl)c2c1 (stereo unspecified)
- T/C (dose: 0.17 mg/kg/injection, schedule: Q04DX003 (ip), vehicle: saline): 110 % of control
- T/C (dose: 0.25 mg/kg/injection, schedule: Q01DX009 (ip), vehicle: saline): 154 % of control
- T/C (dose: 0.4 mg/kg/injection, schedule: Q01DX009 (ip), vehicle: saline): 162 % of control
- T/C (dose: 0.62 mg/kg/injection, schedule: Q01DX009 (ip), vehicle: saline): 159 % of control and 166 % of control
- T/C (dose: 0.93 mg/kg/injection, schedule: Q01DX009 (ip), vehicle: saline): 87 % of control and 100 % of control
- T/C (dose: 1.0 mg/kg/injection, schedule: Q01DX009 (ip), vehicle: saline): 118 % of control
- T/C (dose: 4.0 mg/kg/injection, schedule: Q01DX009 (ip), vehicle: saline): 95 % of control
- T/C (dose: 62.5 micrograms/kg/injection, schedule: Q01DX009 (ip), vehicle: saline): 95 % of control
- T/C (dose: 125.0 micrograms/kg/injection, schedule: Q01DX009 (ip), vehicle: saline): 113 % of control
- T/C (dose: 500.0 micrograms/kg/injection, schedule: Q01DX009 (ip), vehicle: saline): 168 % of control
- T/C (dose: 1000.0 micrograms/kg/injection, schedule: Q01DX009 (ip), vehicle: saline): 150 % of control

SMILES: O=C(OCC1OC(n2cnc3c(=S)nc[nH]c32)C(OC(=O)c2ccc([N+](=O)[O-])cc2)C1OC(=O)c1ccc([N+](=O)[O-])cc1)c1ccc([N+](=O)[O-])cc1 (stereo unspecified)
- T/C (dose: 50.0 mg/kg/injection, schedule: Q01DX009 (ip), vehicle: Klucel (hydroxypropylcellulose) (HPC)): 100 % of control
- T/C (dose: 100.0 mg/kg/injection, schedule: Q01DX009 (ip), vehicle: Klucel (hydroxypropylcellulose) (HPC)): 109 % of control
- T/C (dose: 200.0 mg/kg/injection, schedule: Q01DX009 (ip), vehicle: Klucel (hydroxypropylcellulose) (HPC)): 109 % of control
- T/C (dose: 400.0 mg/kg/injection, schedule: Q01DX009 (ip), vehicle: Klucel (hydroxypropylcellulose) (HPC)): 118 % of control

SMILES: CC(CCC(=O)NC12CC3CC(CC(C3)C1)C2)C1CCC2C3CCC4CC(OC=O)CCC4(C)C3CC(OC=O)C12C (stereo unspecified)
- T/C (dose: 12.5 mg/kg/injection, schedule: Q04DX002 (ip), vehicle: saline with Tween-80): 91 % of control
- T/C (dose: 25.0 mg/kg/injection, schedule: Q04DX002 (ip), vehicle: saline with Tween-80): 110 % of control

SMILES: O=[N+]([O-])c1cc(S(=O)(=O)OCC2CO2)ccc1Cl (stereo unspecified)
- T/C (dose: 6.25 mg/kg/injection, schedule: Q01DX009 (ip), vehicle: Klucel (hydroxypropylcellulose) (HPC)): 100 % of control
- T/C (dose: 12.0 mg/kg/injection, schedule: Q04DX003 (ip), vehicle: Klucel (hydroxypropylcellulose) (HPC)): 95 % of control
- T/C (dose: 12.5 mg/kg/injection, schedule: Q01DX009 (ip), vehicle: Klucel (hydroxypropylcellulose) (HPC)): 105 % of control
- T/C (dose: 25.0 mg/kg/injection, schedule: Q01DX009 (ip), vehicle: Klucel (hydroxypropylcellulose) (HPC)): 120 % of control
- T/C (dose: 100.0 mg/kg/injection, schedule: Q04DX003 (ip), vehicle: Klucel (hydroxypropylcellulose) (HPC)): 108 % of control

SMILES: N=C(N)c1ccc(-c2ccc(-c3ccc(C(=N)N)cc3)o2)cc1
- T/C (dose: 3.13 mg/kg/injection, schedule: Q01DX009 (ip), vehicle: saline with Tween-80): 111 % of control
- T/C [2]: 119 % of control

SMILES: O=N[O-].O=N[O-].[Co].[NH-]CC[N-]CCO.[NH-]CC[N-]CCO
- T/C (dose: 12.5 mg/kg/injection, schedule: Q01DX009 (ip), vehicle: water): 102 % of control and 115 % of control
- T/C (dose: 40.0 mg/kg/injection, schedule: Q01DX009 (ip), vehicle: water): 118 % of control
- T/C (dose: 50.0 mg/kg/injection, schedule: Q01DX009 (ip), vehicle: water): 100 % of control and 111 % of control
- T/C (dose: 100.0 mg/kg/injection, schedule: Q01DX009 (ip), vehicle: water): 101 % of control

SMILES: O=NN1CCCNC1=O
- T/C (dose: 66.0 mg/kg/injection, schedule: Q04DX003 (ip), vehicle: saline with Tween-80): 245 % of control
- T/C [3]: 116 % of control

SMILES: COc1ccc2c(c1)NC(c1ccccc1C(=O)O)c1cccn1-2 (stereo unspecified)
- T/C [2]: 90 % of control
- T/C (dose: 12.5 mg/kg/injection, schedule: Q01DX009 (ip), vehicle: saline with Tween-80): 97 % of control
- T/C [4]: 97 % of control

SMILES: Cc1nc2nccnc2[nH]1
- T/C [5]: 91 % of control
- T/C [6]: 91 % of control
- T/C [7]: 100 % of control

SMILES: CC1=C(CO)C(=O)O[C@@H]([C@@H](C)[C@H]2CC[C@H]3[C@@H]4C[C@H]5O[C@]56[C@@H](O)C=CC(=O)[C@]6(C)[C@H]4CC[C@]23C)C1
- T/C (dose: 5.0 mg/kg/injection, schedule: Q01DX010 (ip), vehicle: steriod suspending solution): 95 % of control
- T/C (dose: 10.0 mg/kg/injection, schedule: Q01DX010 (ip), vehicle: steriod suspending solution): 100 % of control
- T/C (dose: 20.0 mg/kg/injection, schedule: Q01DX010 (ip), vehicle: steriod suspending solution): 90 % of control
- T/C (dose: 40.0 mg/kg/injection, schedule: Q01DX010 (ip), vehicle: steriod suspending solution): 104 % of control

SMILES: CN(C)P(Cl)(Cc1ccccc1)(c1ccccc1)c1ccccc1
- T/C (dose: 3.0 mg/kg/injection, schedule: Q01DX009 (ip), vehicle: saline): 108 % of control
- T/C (dose: 3.0 mg/kg/injection, schedule: Q04DX003 (ip), vehicle: saline): 110 % of control
- T/C (dose: 6.0 mg/kg/injection, schedule: Q01DX009 (ip), vehicle: saline): 116 % of control and 122 % of control
- T/C (dose: 6.0 mg/kg/injection, schedule: Q04DX003 (ip), vehicle: saline): 105 % of control
- T/C (dose: 12.0 mg/kg/injection, schedule: Q04DX003 (ip), vehicle: saline): 110 % of control

SMILES: CCCC1CC[N-]CC1.CCCC1CC[N-]CC1.CCCC1CC[N-]CC1.CCCC1CC[N-]CC1.[Cl][Rh][Cl]
- T/C (dose: 0.35 mg/kg/injection, schedule: Q01DX009 (ip), vehicle: saline): 122 % of control
- T/C (dose: 0.53 mg/kg/injection, schedule: Q01DX009 (ip), vehicle: saline): 123 % of control
- T/C (dose: 0.8 mg/kg/injection, schedule: Q01DX009 (ip), vehicle: saline): 119 % of control
- T/C (dose: 3.0 mg/kg/injection, schedule: Q01DX009 (ip), vehicle: Klucel (hydroxypropylcellulose) (HPC)): 86 % of control

SMILES: O=C(Nc1cccc(C2=NCCCN2)c1)Nc1ccc(NC(=O)Nc2cccc(C3=NCCCN3)c2)c(Cl)c1
- T/C (dose: 10.0 mg/kg/injection, schedule: Q01DX009 (ip), vehicle: saline with Tween-80): 227 % of control
- T/C (dose: 11.0 mg/kg/injection, schedule: Q04DX003 (ip), vehicle: saline with Tween-80): 182 % of control
- T/C (dose: 17.0 mg/kg/injection, schedule: Q04DX003 (ip), vehicle: saline with Tween-80): 217 % of control
- T/C (dose: 20.0 mg/kg/injection, schedule: Q01DX009 (ip), vehicle: saline with Tween-80): 204 % of control
- T/C (dose: 26.0 mg/kg/injection, schedule: Q04DX003 (ip), vehicle: saline with Tween-80): 195 % of control and 209 % of control
- T/C (dose: 40.0 mg/kg/injection, schedule: Q04DX003 (ip), vehicle: saline with Tween-80): 272 % of control
- T/C (dose: 60.0 mg/kg/injection, schedule: Q04DX003 (ip), vehicle: saline with Tween-80): 272 % of control

SMILES: Cc1nc(OCc2ccccc2)c(C(=O)OCc2ccccc2)nc1C
- T/C [4]: 100 % of control
- T/C (dose: 50.0 mg/kg/injection, schedule: Q01DX009 (ip), vehicle: saline with Tween-80): 106 % of control and 121 % of control
- T/C [5]: 106 % of control and 108 % of control
- T/C [3]: 94 % of control
- T/C [6]: 100 % of control and 101 % of control
- T/C [1]: 91 % of control
- T/C [7]: 97 % of control and 124 % of control
- T/C (dose: 400.0 mg/kg/injection, schedule: Q04DX003 (ip), vehicle: saline with Tween-80): 100 % of control
- T/C (dose: 500.0 mg/kg/injection, schedule: Q01DX009 (ip), vehicle: saline with Tween-80): 106 % of control
